The test system of data set [1] is H292 cells. Description: Cytotoxicity (CCK-8 cell viability) of the compounds of Magnoliae flos in H292 cells. In kind it is cell-based, human. The following applies: 24 h, vs 0.2% DMSO control = 100%. Here is the method: Then, 10 μl of the CCK-8 solution (Dojindo Laboratories, Japan) was mixed with 90 μl of the medium, and 100 μl thereof was added per well. After incubation for a minimum of 30 minutes to a maximum of 4 hours, the absorbance was measured at 570 nm. The cell viability was calculated according to the following Equation 2 with a negative control group treated with 0.2% DMSO as a reference of 100%.
Cell viability=(Compound treated OD 570 nm value)×100/(Negative control group OD 570 nm value) [Equation 2]

The test system of data set [2] is MUC5AC protein. Kind of data set: Inhibition of MUC5AC protein production (immunoassay) by the compounds. The data set is classed as cell-based, human. To be noted: for Inhibition rate (%): MUC5AC secretion; for Inhibition rate (%) / MUC5AC secretion (Relative amount to TNF-α treated group, %): TNF-α 20 ng/mL; for production of MUC5AC (in words): vs TNF-α treated group = 100%. How it is done:
For immunoassay of the resulting MUC5AC, the supernatant (50 uL) recovered was dispensed on to a 96-well plate and dried in a thermostat set at 50° C. It was washed with PBS supplemented with 1% BSA and reacted with an MUC5AC antibody (abcam, USA) at room temperature for 1 hour. A secondary antibody was dispensed thereto for reaction for 1 hour. It was washed again and then reacted with a 3,3′,5,5′-tetramethylbenzidine peroxide solution for 20 minutes. After the reaction was stopped with a sulfuric acid solution, the degree of color development was measured at 450 nm.
As a result, as shown in the following Table 6, the amount of MUCSAC secretion increased in the group treated with TNF-α.

Data set [3] has as its system MUC5AC promoters. Kind of data set: MUC5AC promoter luciferase reporter assay in H292 cells. The data set is classed as cell-based, human. The following applies: Table 7, MUC5AC promoter luciferase reporter, 10 μM, TNF-α 20 ng/mL. The source says:
The degree of activation of luciferase was confirmed using a One-glow Luciferase Assay System (Promega).
As a result, as shown in the following Table 7, the activity of the MUC5AC promoters increased in the group treated with TNF-α.
(In general: A reporter such as luciferase makes a cellular process visible.)

Data set [4] relates to inflammatory cells in the bronchoalveolar lavage fluid. Kind of data set: Inflammatory cells in bronchoalveolar lavage fluid of the COPD mouse model (cigarette smoke + LPS). To be noted: BALF, vs COPD-induced group. In kind it is in vivo, C57BL/6N mice. How it is done: Six-week-old male SPF (specific pathogen-free) C57BL/6N mice (22 to 24 g) were supplied by Koatech (Korea). These animals were fed with a sufficient amount of solid feed (no antibiotics, Samyang Feed Co.) and water until the day of the experiment. They were allowed to adapt for 1 week in a light-dark cycle environment at a temperature of 22±2° C. and a humidity of 55±15%, and then subjected to the experiment.
The animal model was exposed to cigarette smoke to induce chronic obstructive pulmonary disease. 3R4F Kentuchy Reference Cigarettes as standard cigarettes for use to generate cigarette smoke were supplied by University of California (USA). The standard cigarettes contain 9.4 mg of tar, 11 mg of total particle matter (TPM), and 12 mg of carbon monoxide per 1 cigarette. The standard cigarettes were used after harmonization for 48 hours to 72 hours at a temperature of 22±1° C. and a humidity of 60±2%. Further, Cigarette Smoke Generator manufactured by Korea BioLink (Korea) was used for exposure to cigarette smoke. Cigarette smoke was inhaled for 1 hour (8 pcs/hour) for 7 days from 1 hour after oral administration of a sample. 10 μg of LPS (lipopolysaccharide) in PBS 50 μL was injected intranasally to each mouse on the 4th day of the experiment after the mouse was anesthetized with zoletyl 1 hour before the exposure to cigarette smoke. The smoking condition was 8 puffs per 1 standard cigarette (volume: 45 mL, duration: 2 seconds, and interval: 1 time/min).
The active fraction of Magnoliae flos (15, 30 mg/kg) and roflumilast (10 mg/kg) as therapeutic substances were dissolved in 0.5% sodium carboxymethyl cellulose and were orally administered 1 hour before the exposure to cigarette smoke.
The experimental groups were divided into (i) normal control (NC) group; (ii) cigarette smoke+LPS exposure group (COPD); (iii) experimental group administered with roflumilast (ROF) (10 mg/kg, p.o) 1 hour before the exposure to cigarette smoke+LPS; and (iv) experimental group administered with the active fraction of Magnoliae flos (15, 30 mg/kg, p.o; Magnoliae flos 15 and Magnoliae flos 30) 1 hour before the exposure to cigarette smoke+LPS. […] Then, they were administered in the same manner as above.
The bronchial alveolar lavage fluid was separated from the animal model treated with the active fraction and the compounds of Magnoliae flos in <Test Example 6-2> above in the following manner, and the number of inflammatory cells was measured.
Specifically, a mouse sonde was inserted into the bronchial tube, a 1 mL syringe containing 0.7 mL of DPBS (Dulbecco's Phosphate-Buffered Saline) was connected thereto, and DPBS was injected into the lung. The injected DPBS was recovered, and this procedure was repeated twice. The bronchoalveolar lavage fluid separated by DPBS was centrifuged at 1,500 rpm for 15 minutes to make a cell pellet. The supernatant was stored frozen at −70° C. for cytokine analysis. Each cell obtained was suspended in DPBS, attached to a slide glass using a cytospin centrifuge, and Diff-Quik stained. The number of inflammatory cells in each sample was counted through microscopic examination, and the inhibition rate was calculated according to the following Equation 3.
Inhibition rate=(Value of COPD-induced group−value of target substance administered group)×100/(Value of COPD-induced group) [Equation 3]

In data set [5] the test system is reactive oxygen species. Description: Production of active oxygen species in BALF of the COPD model (DCF-DA). The data set is classed as in vivo, C57BL/6N mice. Here is the method: Production of active oxygen species in the bronchoalveolar lavage fluid obtained in <Test Example 6-3> above was confirmed by the following method.
Specifically, the separated BALF (200 μL) was treated to the final concentration of 20 μM of DCF-DA (dihydrodichlorofluorescein diacetate, Sigma-Aldrich, USA), followed by culturing for 30 minutes and measurement using Fluorescence (Molecular Device, USA). The inhibition rate was calculated by Equation 3 above.

Data set [6] deals with IL-6. Description: IL-6 level in BALF of the COPD model (ELISA). In kind it is in vivo, C57BL/6N mice. To be noted: vs COPD-induced group; for IL-6 inhibition rate (%): BALF. Here is the method:
(§1) Cytokines were measured in the cell supernatant obtained in <Test Example 6-3> above by the following method. Specifically, the levels of IL-6 (R & D System, USA) and TNF-α (BD Bioscience, USA) in the separated BALF were measured by enzyme-linked immuno-sorbent assay (ELISA). Each cytokine analysis was carried out according to the manufacturer's test method.

For data set [7], the system named is TNF-α. Kind of data set: TNF-α level in BALF of the COPD model (ELISA). The data set is classed as in vivo, C57BL/6N mice. To be noted: vs COPD-induced group; for TNF-α inhibition rate (%): BALF. How it is done: as §1
The subject of data set [8] is infiltration of inflammatory cells in the lung tissue. Description: Lung tissue histopathology (H&E) in the COPD model. In kind it is in vivo, C57BL/6N mice. The following applies: vs COPD-induced group. Here is the method:
Specifically, the lung was taken out and immediately fixed in a 10% formaldehyde solution, which was then sliced and washed with running water for 8 hours. It was then embedded in […] and Hematoxylin & Eosin stained, and the pathological changes in the lung tissue were examined using an optical microscope.

Where [9] appears, read: 15 mg/kg p.o., vs COPD-induced group.
[10] abbreviates: 30 mg/kg p.o., vs COPD-induced group.

Experimental findings from US10376553B2, “Pharmaceutical composition for preventing and treating chronic obstructive lung disease containing, as active ingredient, Magnoliae flos extract, fraction, or active fraction thereof” (KOREA RESEARCH INSTITUTE OF BIOSCIENCE AND BIOTECHNOLOGY, priority 2015, dated 2019) are described below.

Several values for one entry are separate records, joined by “and”; a condition that tells them apart may be missing. Identical values can stand only once.

Regarding `COc1ccc([C@H]2OC[C@H]3[C@@H]2CO[C@@H]3c2ccc(OC)c(OC)c2)cc1OC` [Compound S1, dimethylpinoresinol], the “Viability of H292 cells (%, average ± deviation)” value is recorded as 121.27 ± 2.04% in data set [1] (2.5 μM), 121.61 ± 3.75% in data set [1] (5 μM) and 118.76 ± 1.96% in data set [1] (10 μM). For the same molecule, the “Inhibition rate (%)” value is 8.64% in data set [2] (2.5 μM), 26.36% in data set [2] (5 μM), 30.2% in data set [2] (10 μM) and 55.74% in data set [3]. Also, the “production of MUC5AC (in words)” value in data set [2] was “inhibited in a manner depending on the concentrations”; in data set [2] (listed as Formula 2) it was “inhibited the production of MUC5AC in a manner depending on concentration”. Also, the “Inhibition rate of inflammatory cell infiltration (%) Macrophage” value (“Inhibition rate … (%) Macrophage” below) in data set [4] (15 mg/kg p.o.) was 12.8 ± 10.4%; in data set [4] (30 mg/kg p.o.), 40.0 ± 5.4%. The “Inhibition rate of inflammatory cell infiltration (%) Neutrophil” value (“Inhibition rate … (%) Neutrophil” below) is recorded as 45.9 ± 3.4% in data set [4] (15 mg/kg p.o.) and 54.5 ± 3.4% in data set [4] (30 mg/kg p.o.). The results for the “Inhibition rate of inflammatory cell infiltration (%) Total inflammatory cells” value (“Inhibition rate … (%) Total inflammatory cells” below) in data set [4] (15 mg/kg p.o.) and in data set [4] (30 mg/kg p.o.) were 42.2 ± 2.5% and 54.3 ± 3.5%, respectively. In addition, the “increase in inflammatory cells (in words)” value in data set [4] is listed as “effectively inhibited”. Moreover, the “Active oxygen inhibition rate (%)” value was found to be 17.9 ± 5.1% in data set [5] (setting [9]) and 34.7 ± 3.2% in data set [5] (setting [10]). Further, in data set [5] (15 and 30 mg/kg, vs COPD-induced group), the “production of active oxygen species (in words)” value is “relatively higher inhibition rates in a manner depending on concentration”. Also, the results for the “IL-6 inhibition rate (%)” value in data set [6] (15 mg/kg p.o.) and in data set [6] (30 mg/kg p.o.) were 56.2 ± 6.6% and 67.6 ± 6.6%, respectively. The “IL-6 in the bronchoalveolar lavage fluid (in words)” value in data set [6] is reported as “concentration-dependent decrease”. Also, the figures for the “TNF-α inhibition rate (%)” value in data set [7] (15 mg/kg p.o.) and in data set [7] (30 mg/kg p.o.) were 25.0 ± 7.8% and 38.0 ± 4.1%, respectively. Moreover, in data set [7], the “TNF-α secretion in the bronchoalveolar lavage fluid (in words)” value was “concentration-dependent inhibition”.

Regarding `O=C(Nc1c(Cl)cncc1Cl)c1ccc(OC(F)F)c(OCC2CC2)c1` [ROF, roflumilast, reference compound], in data set [4] (10 mg/kg p.o.), the “Inhibition rate … (%) Macrophage” value was 36.9 ± 15.0% and 30.6 ± 9.9%; the “Inhibition rate … (%) Neutrophil” value is 31.9 ± 7.6% and 37.4 ± 8.3%; the “Inhibition rate … (%) Total inflammatory cells” value was 34.9 ± 4.6% and 39.4 ± 7.2%. The “Active oxygen inhibition rate (%)” value in data set [5] (10 mg/kg p.o., vs COPD-induced group) was 25.9 ± 4.3%. In addition, the “IL-6 in the bronchoalveolar lavage fluid (in words)” value in data set [6] is reported as “decreased”. For the same molecule, the “TNF-α inhibition rate (%)” value in data set [7] (10 mg/kg p.o.) was 44.8 ± 3.8% and 30.8 ± 5.9%. Moreover, the “infiltration of inflammatory cells around the alveoli and bronchi (in words)” value in data set [8] is “reduced”.

As for `COc1ccc([C@H]2OC[C@H]3[C@@H]2CO[C@@H]3c2cc(OC)c(OC)c(OC)c2)cc1OC` [Compound S2, magnolin], the “Viability of H292 cells (%, average ± deviation)” value was determined as 121.81 ± 2.42% in data set [1] (2.5 μM), 119.94 ± 2.81% in data set [1] (5 μM), 118.37 ± 2.55% in data set [1] (10 μM) and 112.99 ± 4.16% in data set [1] (20 μM). Besides, the “MUC5AC secretion (Relative amount to TNF-α treated group, %)” value in data set [2] (2.5 μM) came out at 97.57 ± 0.78%; in data set [2] (5 μM), 81.17 ± 0.82%; in data set [2] (10 μM), 65.67 ± 0.99%; in data set [3], 44.8 ± 7.33%. The “Inhibition rate (%)” value in data set [2] (2.5 μM) stood at 2.43%; in data set [2] (5 μM) it was 18.83%; in data set [2] (10 μM), 34.33%; in data set [3] it was 55.2%. In addition, the figures for the “production of MUC5AC (in words)” value in data set [2] and in data set [2] (listed as Formula 3) were “inhibited in a manner depending on the concentrations” and “inhibited the production of MUC5AC in a manner depending on concentration”, respectively. Further, the “Inhibition rate … (%) Macrophage” value worked out at 21.6 ± 6.3% in data set [4] (15 mg/kg p.o.) and 10.7 ± 9.8% in data set [4] (30 mg/kg p.o.). For the same molecule, the “Inhibition rate … (%) Neutrophil” value in data set [4] (15 mg/kg p.o.) was 47.2 ± 3.6%; in data set [4] (30 mg/kg p.o.), 31.0 ± 7.1%. The “Inhibition rate … (%) Total inflammatory cells” value was 44.7 ± 3.9% in data set [4] (15 mg/kg p.o.) and 30.7 ± 5.3% in data set [4] (30 mg/kg p.o.). Besides, the “Active oxygen inhibition rate (%)” value in data set [5] (setting [9]) is on record as 21.8 ± 4.4%; in data set [5] (setting [10]), 14.0 ± 8.3%. Also, in data set [5] (30 mg/kg), the “rate of inhibiting reactive oxygen compared with ROF drug control group (in words)” value is recorded as “higher rates of inhibiting reactive oxygen than that of the drug control group treated with ROF”. Moreover, the “IL-6 inhibition rate (%)” value turned out to be 64.9 ± 4.8% in data set [6] (15 mg/kg p.o.) and 36.6 ± 8.9% in data set [6] (30 mg/kg p.o.). Further, the “TNF-α inhibition rate (%)” value worked out at 29.2 ± 4.8% in data set [7] (15 mg/kg p.o.) and 31.0 ± 7.2% in data set [7] (30 mg/kg p.o.).
